# Experimental data published in patent publication US20120165310A1, “ETHER DERIVATIVES OF BICYCLIC HETEROARYLS” (NOVARTIS AG, priority 2009, published 2012).
# Biological target: T1, IGF-1R (Homo sapiens, UniProt P08069)
# T1 construct: expressed in transfected cells; host or cells: Hek293 (Hek293-IGF1R)
# Experiment: Cellular IGF-1R assay: capture ELISA (MSD) of receptor phosphorylation in Hek293 cells
# Type: cell-based
# Details: Hek293-IGF1R cells, 1 h pre-incubation, 10 min IGF stimulation, pIGF1R capture ELISA
# In short: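 IC50 from 4-parameter fit of IGF1R phosphorylation, normalised to IGF-stimulated and unstimulated controls, measured by MSD capture ELISA on lysates. Hek293-IGF1R cells in starvation medium got compound 1 h (top 10 μM, 3-fold steps, 0.1% DMSO) before a 10 min pulse of 1.0 ng/μL IGF.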
# T1 sequence (P08069 31-1367): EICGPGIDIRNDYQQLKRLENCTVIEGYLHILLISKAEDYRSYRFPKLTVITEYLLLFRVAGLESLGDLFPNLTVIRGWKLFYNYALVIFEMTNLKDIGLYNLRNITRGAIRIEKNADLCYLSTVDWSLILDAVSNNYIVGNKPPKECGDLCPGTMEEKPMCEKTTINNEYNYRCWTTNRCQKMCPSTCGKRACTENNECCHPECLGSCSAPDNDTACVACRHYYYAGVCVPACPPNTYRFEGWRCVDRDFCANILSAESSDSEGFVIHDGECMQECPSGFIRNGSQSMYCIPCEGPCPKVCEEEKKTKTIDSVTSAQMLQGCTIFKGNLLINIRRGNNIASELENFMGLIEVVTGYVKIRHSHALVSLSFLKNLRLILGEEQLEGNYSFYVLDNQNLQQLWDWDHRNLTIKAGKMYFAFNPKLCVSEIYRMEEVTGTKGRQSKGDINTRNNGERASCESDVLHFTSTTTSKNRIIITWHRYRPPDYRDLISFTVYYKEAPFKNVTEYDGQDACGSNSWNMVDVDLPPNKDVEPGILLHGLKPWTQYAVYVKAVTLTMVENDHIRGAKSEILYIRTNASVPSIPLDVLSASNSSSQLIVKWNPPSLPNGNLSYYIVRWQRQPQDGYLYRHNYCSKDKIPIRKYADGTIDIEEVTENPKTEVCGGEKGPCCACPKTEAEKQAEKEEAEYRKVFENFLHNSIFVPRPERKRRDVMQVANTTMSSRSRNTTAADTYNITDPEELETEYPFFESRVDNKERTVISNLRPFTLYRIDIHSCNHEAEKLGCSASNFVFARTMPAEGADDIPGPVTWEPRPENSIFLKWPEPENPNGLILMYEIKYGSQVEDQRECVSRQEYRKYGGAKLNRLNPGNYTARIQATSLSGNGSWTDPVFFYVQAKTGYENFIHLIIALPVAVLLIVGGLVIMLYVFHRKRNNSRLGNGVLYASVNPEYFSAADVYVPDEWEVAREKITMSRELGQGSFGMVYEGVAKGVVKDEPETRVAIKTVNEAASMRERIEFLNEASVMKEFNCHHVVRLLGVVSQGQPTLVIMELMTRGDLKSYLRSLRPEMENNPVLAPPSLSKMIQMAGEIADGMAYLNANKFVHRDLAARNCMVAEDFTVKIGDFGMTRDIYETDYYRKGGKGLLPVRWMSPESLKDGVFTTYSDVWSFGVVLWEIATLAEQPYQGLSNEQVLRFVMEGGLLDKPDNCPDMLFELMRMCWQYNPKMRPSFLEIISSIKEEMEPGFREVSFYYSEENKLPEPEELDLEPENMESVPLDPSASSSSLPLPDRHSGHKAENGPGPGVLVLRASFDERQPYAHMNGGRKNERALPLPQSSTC
row,Compound,IC50
1,"Nc1ncnc2c1c(-c1cccc(OC[C@@H]3CCCO3)c1)cn2C1CC2(CNC(=O)O2)C1 (stereo partly drawn) [Example 238, 2-(4-Amino-5-{3-[(S)-1-(tetrahydro-furan-2-yl)methoxy]-phenyl}-pyrrolo[2,3-d]pyrimidin-7-yl)-5-oxa-7-aza-spiro[3.4]octan-6-one]",366 nM
2,"Nc1ncnc2c1c(-c1cccc(OCC34CCC(CC3)O4)c1)cn2[C@H]1C[C@@H](CN2C(=O)c3ccccc3C2=O)C1 [Example 108, 2-(((1S,3S)-3-(5-(3-(7-oxabicyclo[2.2.1]heptan-1-ylmethoxy)phenyl)-4-amino-7H-pyrrolo[2,3-d]pyrimidin-7-yl)cyclobutyl)methyl)isoindoline-1,3-dione]",327 nM
3,"CCNC(=O)NCC1CC(n2cc(-c3cccc(OCC45CCC(CC4)O5)c3)c3c(N)ncnc32)C1 (stereo not drawn) [Example 163, 1-(3-{4-amino-5-[3-(7-oxa-bicyclo[2.2.1]hept-1-ylmethoxy)-phenyl]-pyrrolo[2,3-d]pyrimidin-7-yl}-cyclobutylmethyl)-3-ethyl-urea]",153 nM
4,"CC1(C)CCC(COc2cccc(-c3cn(C4CCC(N5CCC[C@H]5C(N)=O)CC4)c4ncnc(N)c34)c2)O1 (stereo partly drawn) [Example 69, (S)-1-(4-{4-amino-5-[3-(5,5-dimethyl-tetrahydro-furan-2-ylmethoxy)-phenyl]-pyrrolo[2,3-d]pyrimidin-7-yl}-cyclohexyl)-pyrrolidine-2-carboxylic acid amide]",388 nM
5,"Nc1ncnc2c1c(-c1cccc(OCC34CCC(CC3)O4)c1)cn2[C@H]1CC[C@@H](CO)CC1 [Example 110, ((1S,4S)-4-(5-(3-(7-oxabicyclo[2.2.1]heptan-1-ylmethoxy)phenyl)-4-amino-7H-pyrrolo[2,3-d]pyrimidin-7-yl)-cyclohexyl)methanol]",590 nM
6,"CS(=O)(=O)CCN1CCC(n2cc(-c3cccc(OCC45CCC(CC4)O5)c3)c3c(N)ncnc32)CC1 [Example 114, 5-(3-(7-oxabicyclo[2.2.1]heptan-1-ylmethoxy)phenyl)-7-(1-(2-(methylsulfonyl)ethyl)piperidin-4-yl)-7H-pyrrolo[2,3-d]pyrimidin-4-amine]",299 nM
7,"NC(=O)[C@@H]1[C@H](O)CCN1C[C@H]1C[C@@H](n2cc(-c3cccc(OCC4CCCO4)c3)c3c(N)ncnc32)C1 (stereo partly drawn) [Example 82, (2S,3R)-1-(cis-3-{4-amino-5-[3-(tetrahydro-furan-2-ylmethoxy)-phenyl]-pyrrolo[2,3-d]pyrimidin-7-yl}-cyclobutylmethyl)-3-hydroxy-pyrrolidine-2-carboxylic acid amide]",205 nM
8,"Nc1ncnc2c1c(-c1cccc(OCC34CCC(CC3)O4)c1)cn2[C@H]1CC[C@H](N)CC1 (relative stereo) [Example 182, 7-(trans-4-Amino-cyclohexyl)-5-[3-(7-oxa-bicyclo[2.2.1]hept-1-ylmethoxy)-phenyl]-7H-pyrrolo[2,3-d]pyrimidin-4-ylamine]",211 nM
9,"Nc1ncnc2c1c(-c1cccc(OCC34CCC(CC3)O4)c1)cn2[C@H]1CC[C@@H](N2CC[C@@H](O)C2)CC1 [Example 128, (R)-1-((1S,4S)-4-(5-(3-(7-oxabicyclo[2.2.1]heptan-1-ylmethoxy)phenyl)-4-amino-7H-pyrrolo[2,3-d]pyrimidin-7-yl)cyclohexyl)pyrrolidin-3-ol]",150 nM
10,"Nc1ncnc2c1c(-c1cccc(OCC34CCC(CC3)O4)c1)cn2[C@H]1CC[C@H](N2CC[C@@H](F)C2)CC1 [Example 125, 5-(3-(7-oxabicyclo[2.2.1]heptan-1-ylmethoxy)phenyl)-7-((1R,4S)-4-((R)-3-fluoropyrrolidin-1-yl)cyclohexyl)-7H-pyrrolo[2,3-d]pyrimidin-4-amine]",419 nM
11,"NC(=O)[C@@H]1CCCN1[C@H]1C[C@H](n2cc(-c3cccc(OCC45CCC(CC4)O5)c3)c3c(N)ncnc32)C1 [Example 190, (S)-1-(trans-3-{4-Amino-5-[3-(7-oxa-bicyclo[2.2.1]hept-1-ylmethoxy)-phenyl]-pyrrolo[2,3-d]pyrimidin-7-yl}-cyclobutyl)-pyrrolidine-2-carboxylic acid amide]",435 nM
12,"CN1CCN([C@H]2CC[C@H](n3cc(-c4cccc(OCC5CCC(C)(C)O5)c4)c4c(N)ncnc43)CC2)CC1 (relative stereo) [Example 62, 5-[3-(5,5-dimethyl-tetrahydro-furan-2-ylmethoxy)-phenyl]-7-[trans-4-(4-methyl-piperazin-1-yl)-cyclohexyl]-7H-pyrrolo[2,3-d]pyrimidin-4-ylamine]",314 nM
13,"Nc1ncnc2c1c(-c1cccc(OCC34CCC(CC3)O4)c1)cn2C1CCC(N2CCS(=O)(=O)CC2)CC1 (stereo not drawn) [Example 131, 7-[4-(1,1-Dioxo-1λ6-thiomorpholin-4-yl)-cyclohexyl]-5-[3-(7-oxa-bicyclo[2.2.1]hept-1-ylmethoxy)-phenyl]-7H-pyrrolo[2,3-d]pyrimidin-4-ylamine]",108 nM
14,"CN1CCN(C(=O)N[C@H]2CC[C@@H](n3cc(-c4cccc(OCC56CCC(CC5)O6)c4)c4c(N)ncnc43)CC2)CC1 [Example 140, N-((1R,4R)-4-(5-(3-(7-oxabicyclo[2.2.1]heptan-1-ylmethoxy)phenyl)-4-amino-7H-pyrrolo[2,3-d]pyrimidin-7-yl)cyclohexyl)-4-methylpiperazine-1-carboxamide]",473 nM
15,"CN1CCN([C@H]2C[C@H](n3cc(-c4cccc(OCC56CCC(CC5)O6)c4)c4c(N)ncnc43)C2)CC1=O (relative stereo) [Example 196, 4-(trans-3-{4-Amino-5-[3-(7-oxa-bicyclo[2.2.1]hept-1-ylmethoxy)-phenyl]-pyrrolo[2,3-d]pyrimidin-7-yl}cyclobutyl)-1-methyl-piperazin-2-one]",192 nM

# These reach a lower IC50. Values come first.
row,IC50,Compound
1,34 nM,"CC1(C)CCC(COc2cccc(-c3cn(C4CC(CN5CC(F)C5)C4)c4ncnc(N)c34)c2)O1 (stereo not drawn) [Example 47, 5-[trans-3-(5,5-dimethyl-tetrahydro-furan-2-ylmethoxy)-phenyl]-7-[3-(3-fluoro-azetidin-1-ylmethyl)-cyclobutyl]-7H-pyrrolo[2,3-d]pyrimidin-4-ylamine]"
2,97 nM,"Nc1ncnc2c1c(-c1cccc(OCC34CCC(CC3)O4)c1)cn2C1CCC(CN2CCS(=O)(=O)CC2)CC1 (stereo not drawn) [Example 111, 7-[4-(1,1-Dioxo-thiomorpholin-4-ylmethyl)-cyclohexyl]-5-[3-(7-oxa-bicyclo[2.2.1]hept-1-ylmethoxy)-phenyl]-7H-pyrrolo[2,3-d]pyrimidin-4-ylamine]"
3,63 nM,"Nc1ncnc2c1c(-c1cccc(OCC34CCC(CC3)O4)c1)cn2C1CC(O)(CN2CCC(O)CC2)C1 (stereo not drawn) [Example 192, 1-(3-{4-Amino-5-[3-(7-oxa-bicyclo[2.2.1]hept-1-ylmethoxy)-phenyl]-pyrrolo[2,3-d]pyrimidin-7-yl}-1-hydroxy-cyclobutylmethyl)-piperidin-4-ol]"
4,57 nM,CCOC(=O)c1nccn1C[C@H]1C[C@@H](n2cc(-c3cccc(OCC45CCC(CC4)O5)c3)c3c(N)ncnc32)C1 [Example 180]
5,21 nM,"Nc1ncnc2c1c(-c1cccc(OCC34CCC(CC3)O4)c1)cn2[C@H]1CC[C@@H](NC(=O)C2CCOCC2)CC1 [Example 141, N-((1S,4S)-4-(5-(3-(7-oxabicyclo[2.2.1]heptan-1-ylmethoxy)phenyl)-4-amino-7H-pyrrolo[2,3-d]pyrimidin-7-yl)cyclohexyl)tetrahydro-2H-pyran-4-carboxamide]"
6,12 nM,"NC(=O)[C@@H]1CCCN1C[C@H]1C[C@@H](n2cc(-c3cccc(OCC45CCC(CC4)O5)c3)c3c(N)ncnc32)C1 [Example 68, (S)-1-(cis-3-(4-amino-5-[3-(7-oxa-bicyclo[2.2.1]hept-1-ylmethoxy)-phenyl]-pyrrolo[2,3-d]pyrimidin-7-yl)-cyclobutylmethyl)-pyrrolidine-2-carboxylic acid amide]"
7,61 nM,"CN1CCN([C@H]2CC[C@@H](n3cc(-c4cccc(OCC5CCC(C)(C)O5)c4)c4c(N)ncnc43)CC2)CC1 (relative stereo) [Example 63, 5-[3-(5,5-dimethyl-tetrahydro-furan-2-ylmethoxy)-phenyl]-7-[cis-4-(4-methyl-piperazin-1-yl)-cyclohexyl]-7H-pyrrolo[2,3-d]pyrimidin-4-ylamine]"
8,25 nM,Nc1ncnc2c1c(-c1cccc(OCC34CCC(CC3)O4)c1)cn2[C@H]1CC[C@@H](CN2CC[C@@H](O)C2)CC1 [Example 124]
9,4 to 14 nM,"Nc1ncnc2c1c(-c1cccc(OCC34CCC(CC3)O4)c1)cn2C1CC(CN2CCC[C@H]2CO)C1 (stereo partly drawn) [Example 25, [(S)-1-(3-{4-amino-5-[3-(7-oxa-bicyclo[2.2.1]hept-1-ylmethoxy)-phenyl]-pyrrolo[2,3-d]pyrimidin-7-yl}-cyclobutylmethyl)-pyrrolidin-2-yl]-methanol]"
10,74 nM,"Nc1ncnc2c1c(-c1cccc(OCC34CCC(CC3)O4)c1)cn2C1CC(CN2CC3CC2CS3)C1 [Example 227, 5-[3-(7-Oxa-bicyclo[2.2.1]hept-1-ylmethoxy)-phenyl]-7-{(trans-3-[(1S,4S)-1-(2-thia-5-aza-bicyclo[2.2.1]hept-5-yl)methyl]-cyclobutyl}-7H-pyrrolo[2,3-d]pyrimidin-4-ylamine]"
11,97 nM,"NC(=O)[C@H]1[C@@H](O)CCN1C[C@H]1C[C@@H](n2cc(-c3cccc(OCC4CCCCO4)c3)c3c(N)ncnc32)C1 (stereo partly drawn) [Example 56, (2R,3S)-1-(cis-3-{4-amino-5-[3-(tetrahydro-pyran-2-ylmethoxy)-phenyl]-pyrrolo[2,3d]pyrimidin-7-yl}-cyclobutylmethyl)-3-hydroxy-pyrrolidine-2-carboxylic acid amide]"
12,39 nM,"NC(=O)[C@@H]1CCCN1C[C@H]1C[C@@H](n2cc(-c3cccc(OCC4CCCO4)c3)c3c(N)ncnc32)C1 (stereo partly drawn) [Example 76, (S)-1-(cis-3-{4-amino-5-[3-(tetrahydro-furan-2-ylmethoxy)-phenyl]-pyrrolo[2,3-d]pyrimidin-7-yl}-cyclobutylmethyl)-pyrrolidine-2-carboxylic acid amide]"
